Here are results for 19 compounds from PubChem BioAssay (NCI).

Among the test systems are K-562 leukemia; CAKI-1 renal; HCT-15 colon; HT29 colon; 786-0 renal; TK-10 renal; SW-620 colon; NCI-H23 lung; RXF 393 renal; SN12C renal.
Common to all, as to test: NCI tumour cell line growth inhibition, 48 h

The structures appear in SMILES notation.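 Briefly, cells in 96-well plates were exposed to five compound concentrations for 48 h, and endpoints were estimated by linear interpolation. TGI marks complete inhibition of growth.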 Where a SMILES comes first, the peptide text is derived from it. The star is where a group is joined. Fmoc = O=C(OCC1c2ccccc2-c2ccccc21)*; Boc = CC(C)(C)OC(=O)*

As to `CC(C)(C)c1cc2c(O)c(c1)Cc1cc(C(C)(C)C)cc(c1O)Cc1cc(C(C)(C)C)cc(c1O)Cc1cc(C(C)(C)C)cc(c1O)Cc1cc(C(C)(C)C)cc(c1O)Cc1cc(C(C)(C)C)cc(c1O)Cc1cc(C(C)(C)C)cc(c1O)Cc1cc(C(C)(C)C)cc(c1O)C2`, the TGI with K-562 leukemia, in the assay with CAKI-1 renal, in the assay on HCT-15 colon, in the assay on HT29 colon, with 786-0 renal and in the assay on TK-10 renal was above 50 µM in each case. Also, the TGI in the assay on SW-620 colon, in the assay with NCI-H23 lung, in the assay on RXF 393 renal and in the assay on SN12C renal was above 50 µM throughout.
On to `CC1=CC(=O)CC(C)(C)C1/C=C/C(C)=C/C=C/C(C)=C/C=C/C=C(C)/C=C/C=C(C)/C=C/C1=C(C)CC(O)CC1(C)C` (centres undefined), for which the TGI in the assay with K-562 leukemia is 27.1 µM; in the assay on CAKI-1 renal it was above 100 µM; in the assay on HCT-15 colon, 73.4 µM; in the assay on HT29 colon, above 100 µM; in the assay with 786-0 renal it was 72.5 µM; in the assay on TK-10 renal it was above 100 µM. In addition, the figures for the TGI with SW-620 colon, with NCI-H23 lung and in the assay on RXF 393 renal were 33.2 µM, above 100 µM and 52.7 µM, respectively.
On to `O=C(O)c1ccc(C2SCc3nc4ccccc4n32)cc1` (centres undefined), for which the TGI in the assay with K-562 leukemia, in the assay on CAKI-1 renal, in the assay on HCT-15 colon, in the assay with HT29 colon, in the assay on 786-0 renal and in the assay on TK-10 renal was above 100 µM each time. The TGI with SW-620 colon, in the assay with NCI-H23 lung, in the assay with RXF 393 renal and with SN12C renal was above 100 µM throughout.
Regarding `COc1ccc(/C=C2\CCC/C(=C\c3ccc(O)c(CN4CCCCC4)c3)C2=O)cc1`, the TGI in the assay with K-562 leukemia is above 100 µM; with CAKI-1 renal, above 74.6 µM; in the assay with HCT-15 colon, 36 µM; in the assay on HT29 colon, 19.9 µM; in the assay with 786-0 renal, 19.3 µM; in the assay on TK-10 renal, 52.1 µM. The TGI in the assay on SW-620 colon was determined as 28.8 µM; with NCI-H23 lung it was 41.3 µM; with RXF 393 renal, 41 µM; in the assay on SN12C renal it was 36.5 µM.
Regarding `O=C(c1ccc(Cl)cc1)N(C(=S)OCc1ccccn1)c1ccccc1`, the TGI in the assay with K-562 leukemia, with CAKI-1 renal, in the assay on HCT-15 colon, in the assay on HT29 colon, with 786-0 renal and in the assay with TK-10 renal was above 100 µM each time. For the same compound, the TGI was above 100 µM with SW-620 colon, above 100 µM in the assay on NCI-H23 lung, 56.6 µM with RXF 393 renal and above 100 µM in the assay with SN12C renal.
For the compound `COc1ccc2cc(-c3nc(N)nc(N4N=C(C)CC4(C)C)n3)c(=N)oc2c1`, the TGI turned out to be 40.2 µM with K-562 leukemia; 38 µM with CAKI-1 renal; 32 µM in the assay with HCT-15 colon; 31.7 µM with HT29 colon; 36.3 µM with 786-0 renal; 72 µM in the assay on TK-10 renal. The TGI with NCI-H23 lung came to 31.8 µM; in the assay with RXF 393 renal, 58.9 µM; with SN12C renal, 51.7 µM.
Consider `COc1cc(-c2[o+]c3cc(O)cc(O)c3cc2O)cc(O)c1O`, for which the TGI with K-562 leukemia, in the assay with CAKI-1 renal, in the assay on HCT-15 colon, with HT29 colon, in the assay on 786-0 renal and in the assay on TK-10 renal was above 100 µM throughout. Besides, the TGI in the assay with SW-620 colon, with NCI-H23 lung, with RXF 393 renal and in the assay on SN12C renal was above 100 µM each time.
In the case of `CCN(CC)Cc1c(/C=C\c2cc(OC)c(OC)c(OC)c2)ccc(OC)c1O`, the TGI in the assay with K-562 leukemia is above 100 µM; with CAKI-1 renal, above 100 µM; in the assay with HCT-15 colon, 34.8 µM; in the assay on HT29 colon, 9.48 µM; in the assay on 786-0 renal, 78.9 µM; with TK-10 renal it was above 100 µM. Also, the TGI is above 100 µM in the assay on SW-620 colon, 14.3 µM with NCI-H23 lung, 9.35 µM in the assay with RXF 393 renal and above 71.7 µM with SN12C renal.
Take `Ic1cc2c(cc1C1SCCCS1)OCO2`: the TGI in the assay on K-562 leukemia, with CAKI-1 renal, in the assay with HCT-15 colon, in the assay on HT29 colon, in the assay with 786-0 renal and in the assay on TK-10 renal was above 100 µM in each case. In addition, the TGI with SW-620 colon, in the assay with NCI-H23 lung, with RXF 393 renal and in the assay on SN12C renal was above 100 µM throughout.
Regarding `c1ccc2c(c1)CCc1[nH]c3c(c1-2)-c1ccccc1CC3`, the TGI with K-562 leukemia, with CAKI-1 renal, with HCT-15 colon, in the assay with HT29 colon, in the assay with 786-0 renal and with TK-10 renal was above 100 µM throughout. Also, the TGI with SW-620 colon, in the assay with NCI-H23 lung, with RXF 393 renal and in the assay on SN12C renal was above 100 µM in each case.
As to `COC(=O)[C@H](Cc1ccc(OC(C)(C)C)cc1)N[C@H](C)C(=O)N[C@@H](Cc1ccccc1)C(=O)OCc1ccccc1`, the TGI was 63.5 µM in the assay with K-562 leukemia; above 100 µM in the assay on CAKI-1 renal; above 100 µM in the assay on HCT-15 colon; above 100 µM in the assay with HT29 colon; above 100 µM in the assay on 786-0 renal; above 100 µM with TK-10 renal. Further, the TGI in the assay on SW-620 colon, with NCI-H23 lung, in the assay on RXF 393 renal and in the assay on SN12C renal was above 100 µM throughout.
As for `CC(C)(C)OC(=O)NCCCCC(NC(=O)C(Cc1c[nH]c2ccccc12)NC(=O)OCC1c2ccccc2-c2ccccc21)C(=O)N1CCCC1C(=O)NCC(N)=O` (centres undefined) (Fmoc-WK(Boc)PG-NH2; configuration not given here), the TGI in the assay with K-562 leukemia, in the assay with CAKI-1 renal, in the assay with HCT-15 colon, in the assay with HT29 colon, in the assay on 786-0 renal and in the assay with TK-10 renal was above 100 µM each time. Moreover, the TGI in the assay with SW-620 colon, with NCI-H23 lung, in the assay with RXF 393 renal and in the assay with SN12C renal was above 100 µM throughout.
Regarding `O=c1[nH]c(=O)n(C2OC(CO)C(O)C2O)cc1Oc1ccccc1` (centres undefined), the TGI with K-562 leukemia, in the assay with CAKI-1 renal, in the assay with HCT-15 colon, in the assay on HT29 colon, in the assay on 786-0 renal and in the assay with TK-10 renal was above 100 µM in each case. Besides, the TGI in the assay with SW-620 colon, in the assay with NCI-H23 lung, in the assay on RXF 393 renal and with SN12C renal was above 100 µM each time.
On to `O=C1C=C(OCCCCl)C(=O)c2c(O)ccc(O)c21`, for which the TGI in the assay on K-562 leukemia was 5.86 µM; in the assay on CAKI-1 renal, 3.4 µM; in the assay with HCT-15 colon, 1.58 µM; in the assay with HT29 colon, 1.31 µM; in the assay on 786-0 renal, 2.94 µM; in the assay with TK-10 renal, 3.46 µM. The TGI came to 2.3 µM with SW-620 colon, 0.479 µM in the assay on NCI-H23 lung, 3.09 µM in the assay on RXF 393 renal and 1.12 µM in the assay with SN12C renal.
In the case of `Cn1c(=O)sc2cc(C(=S)N3CCC(Cc4ccccc4)CC3)ccc21`, the TGI in the assay with K-562 leukemia, in the assay with CAKI-1 renal, with HCT-15 colon, in the assay on HT29 colon, with 786-0 renal and with TK-10 renal was above 100 µM in each case. The TGI with SW-620 colon, in the assay with NCI-H23 lung, in the assay on RXF 393 renal and with SN12C renal was above 100 µM each time.
Regarding `C=C(CN1CC2C[C@](C(=O)OC)(c3cc4ccccc4[nH]3)C1C(OC)C2OC)S(=O)(=O)c1ccccc1` (some centres undefined), the TGI in the assay on K-562 leukemia was 10.6 µM; in the assay with CAKI-1 renal, 11.7 µM; with HCT-15 colon it was 8.61 µM; with HT29 colon, 9.44 µM; in the assay on 786-0 renal, 10 µM; with TK-10 renal, 17.4 µM. The TGI with SW-620 colon came out at 22.8 µM; in the assay with NCI-H23 lung, 9.31 µM; with RXF 393 renal, 10.1 µM; in the assay on SN12C renal, 11.3 µM.
In the case of `CC1CCC2(CC1)NC1=C(CC(C)CC1)C1=C2CC(C)CC1` (centres undefined), the TGI was determined as 42.9 µM with K-562 leukemia; 54.5 µM in the assay with CAKI-1 renal; 45.9 µM in the assay on HCT-15 colon; 46.5 µM in the assay on HT29 colon; 39.1 µM in the assay on 786-0 renal; 89.2 µM in the assay with TK-10 renal. The TGI in the assay with SW-620 colon is 37.7 µM; in the assay with NCI-H23 lung, 59 µM; with RXF 393 renal, 30.7 µM.
With `COC(=O)C1=C(C(=O)OC)SC2(S1)C(C(=O)OC)=C(C(=O)OC)Sc1c2ssc1=Nc1ccc(Cl)cc1`, the TGI amounted to 5.78 µM in the assay with K-562 leukemia; 2.21 µM in the assay on CAKI-1 renal; 1.78 µM with HT29 colon; 1.69 µM with 786-0 renal; 2.69 µM in the assay on TK-10 renal; 4.13 µM in the assay with NCI-H23 lung. The TGI in the assay with RXF 393 renal turned out to be 0.894 µM; in the assay on SN12C renal, 1.8 µM.
As to `CSc1ccc(/C=C2\N=C(c3ccccc3)N(c3nc4cc(C)c(C)cc4s3)C2=O)cc1`, the TGI in the assay with K-562 leukemia was above 100 µM; in the assay with CAKI-1 renal, above 100 µM; in the assay on HCT-15 colon it was above 100 µM; in the assay with HT29 colon it was 47.9 µM; in the assay with 786-0 renal, 61.6 µM; with TK-10 renal, above 100 µM. Also, the TGI was above 100 µM in the assay on SW-620 colon, 62.3 µM with RXF 393 renal and 72.4 µM in the assay on SN12C renal.
